Data as given in patent US11878965B2, “Inhibitors of peptidylarginine deiminases” (Gilead Sciences, Inc., priority 2020, dated 2024).

Biological target: human PAD4 (Homo sapiens (Human), UniProt Q9UM07)
Assay: In Vitro PAD4 BAEE Biochemical Assay
Conditions: human PAD4, BAEE substrate; 5 nM PAD4, 2 mM calcium chloride, 3 mM BAEE; geometric mean of multiple experiments
How it was run: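 Recombinant human PAD4 (His-SUMO tag removed, E. coli-expressed), 5 nM, preincubated with compound and 2 mM CaCl2 30 min at 25 °C in MOPS pH 7.6 with DTT; 3 mM BAEE added for 2 h at 25 °C, EDTA stop. Released ammonia detected by o-phthalaldehyde/DTT fluorescence (ex 405, em 535 nm).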

Sequence of human PAD4 (Q9UM07 2-663): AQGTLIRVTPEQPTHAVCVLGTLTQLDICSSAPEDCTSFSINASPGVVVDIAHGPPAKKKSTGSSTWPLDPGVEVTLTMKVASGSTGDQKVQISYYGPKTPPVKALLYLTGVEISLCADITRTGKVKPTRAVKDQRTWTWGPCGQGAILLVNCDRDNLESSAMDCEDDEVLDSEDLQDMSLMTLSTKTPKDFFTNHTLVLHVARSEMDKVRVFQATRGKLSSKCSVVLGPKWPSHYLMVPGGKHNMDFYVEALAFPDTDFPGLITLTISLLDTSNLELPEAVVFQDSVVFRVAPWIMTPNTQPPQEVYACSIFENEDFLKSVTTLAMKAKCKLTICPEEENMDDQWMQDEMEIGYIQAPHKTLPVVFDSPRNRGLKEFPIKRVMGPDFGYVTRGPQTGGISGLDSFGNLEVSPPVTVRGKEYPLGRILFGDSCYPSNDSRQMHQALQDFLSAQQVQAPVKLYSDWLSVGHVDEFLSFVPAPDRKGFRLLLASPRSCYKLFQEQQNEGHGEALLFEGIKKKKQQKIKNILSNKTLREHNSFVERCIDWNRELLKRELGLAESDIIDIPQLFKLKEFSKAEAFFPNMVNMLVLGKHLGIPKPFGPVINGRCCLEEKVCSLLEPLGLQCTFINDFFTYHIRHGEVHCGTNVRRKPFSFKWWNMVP

| Structure (SMILES) | IC50 [nM] |
| --- | --- |
| COc1cc(C(=O)N2[C@H]3CC[C@@H]2[C@H](N)C3)cc2nc(-c3cc4ccc(N(C)S(C)(=O)=O)nc4n3CC3CC3)n(C)c12 [Example 79, N-(2-(5-((1R,2R,4S)-2-amino-7-azabicyclo[2.2.1]heptane-7-carbonyl)-7-methoxy-1-methyl-1H-benzo[d]imidazol-2-yl)-1-(cyclopropylmethyl)-1H-pyrrolo[2,3-b]pyridin-6-yl)-N-methyl-methanesulfonamide] | 33.6 |
| C=CC(=O)N[C@@H]1CNC[C@H]1NC(=O)c1cc(OC)c2c(c1)nc(-c1cc3ccc(N(C(F)F)S(C)(=O)=O)nc3n1CC1CC1)n2C [Example 80, N-((3R,4R)-4-acrylamidopyrrolidin-3-yl)-2-(1-(cyclopropylmethyl)-6-((N-(difluoromethyl)methyl)sulfonamido)-1H-pyrrolo[2,3-b]pyridin-2-yl)-7-methoxy-1-methyl-1H-benzo[d] imidazole-5-carboxamide] | 240 |
| C#CC(=O)N[C@@H]1CNC[C@H]1NC(=O)c1cc(OC)c2c(c1)nc(-c1cc3ccc(N(C(F)F)S(C)(=O)=O)nc3n1CC1CC1)n2C [Example 81, 2-(1-(cyclopropylmethyl)-6-((N-(difluoromethyl)methyl)sulfonamido)-1H-pyrrolo[2,3-b]pyridin-2-yl)-7-methoxy-1-methyl-N-((3R,4R)-4-propiolamidopyrrolidin-3-yl)-1H-benzo[d]imidazole-5-carboxamide] | 4630 |
| COc1cc(C(=O)N2C[C@@H]3C[C@@H](N)[C@H]2C3)cc2nc(-c3cc4ccc(N(C(F)F)S(C)(=O)=O)nc4n3CC3CC3)n(C)c12 [Example 82, N-(2-(5-((1R,4R,6R)-6-amino-2-azabicyclo[2.2.1]heptane-2-carbonyl)-7-methoxy-1-methyl-1H-benzo[d]imidazol-2-yl)-1-(cyclopropylmethyl)-1H-pyrrolo[2,3-b]pyridin-6-yl)-N-(difluoromethyl) methanesulfonamide] | 47600 |
| COc1cc(C(=O)N[C@@H]2CNC[C@H]2NC(=O)CCCN(C)C)cc2nc(-c3cc4ccc(N(C(F)F)S(C)(=O)=O)nc4n3CC3CC3)n(C)c12 [Example 83, 2-(1-(cyclopropylmethyl)-6-((N-(difluoromethyl)methyl)sulfonamido)-1H-pyrrolo[2,3-b]pyridin-2-yl)-N-((3R,4R)-4-(4-(dimethylamino)butanamido)pyrrolidin-3-yl)-7-methoxy-1-methyl-1H-benzo[d]imidazole-5-carboxamide] | 50000 |
| COc1cc(C(=O)N2[C@H]3CC[C@@H]2[C@H](N)C3)cc2nc(-c3cc4ccc(N(C(C)C)S(C)(=O)=O)nc4n3CC3CC3)n(C)c12 [Example 84, N-(2-(5-((1R,2R,4S)-2-amino-7-azabicyclo[2.2.1]heptane-7-carbonyl)-7-methoxy-1-methyl-1H-benzo[d]imidazol-2-yl)-1-(cyclopropylmethyl)-1H-pyrrolo[2,3-b]pyridin-6-yl)-N-isopropylmethanesulfonamide] | 58.3 |
| COc1cc(C(=O)N2[C@@H]3CC[C@@H](N)[C@H]2CC3)cc2nc(-c3cc4ccc(N(C(C)C)S(C)(=O)=O)nc4n3CC3CC3)n(C)c12 [Example 85, N-(2-(5-((1R,2R,5R)-2-amino-8-azabicyclo[3.2.1]octane-8-carbonyl)-7-methoxy-1-methyl-1H-benzo[d]imidazol-2-yl)-1-(cyclopropylmethyl)-1H-pyrrolo [2,3-b]pyridin-6-yl)-N-isopropyl-methanesulfonamide] | 69.8 |
| COc1cc(C(=O)N[C@H]2CCNC2)cc2nc(-c3cc4ccc(N(C(F)F)S(C)(=O)=O)nc4n3CC3CC3)n(C)c12 [Example 88, (S)-2-(1-(cyclopropylmethyl)-6-((N-(difluoromethyl)methyl)sulfonamido)-1H-pyrrolo[2,3-b]pyridin-2-yl)-7-methoxy-1-methyl-N-(pyrrolidin-3-yl)-1H-benzo[d]imidazole-5-carboxamide] | 50000 |
| CN(c1ccc2cc(-c3nc4cc(C(=O)N5[C@H]6CC[C@@H]5[C@H](N)C6)cc5c4n3CCO5)n(CC3CC3)c2n1)S(C)(=O)=O [Example 90, N-(2-(7-((1R,2R,4S)-2-amino-7-azabicyclo[2.2.1]heptane-7-carbonyl)-3,4-dihydro-5-oxa-1,2a-diazaacenaphthylen-2-yl)-1-(cyclopropylmethyl)-1H-pyrrolo [2,3-b]pyridin-6-yl)-N-methylmethanesulfonamide] | 214 |
| C[C@H](CN)NC(=O)c1cc2nc(-c3cc4ccc(N(C(F)F)S(C)(=O)=O)nc4n3CC3CC3)n(C)c2cc1F [Example 94, (R)-N-(1-aminopropan-2-yl)-2-(1-(cyclopropylmethyl)-6-((N-(difluoromethyl)methyl)sulfonamido)-1H-pyrrolo[2,3-b]pyridin-2-yl)-6-fluoro-1-methyl-1H-benzo[d]imidazole-5-carboxamide] | 26400 |
| C[C@H]1CCCS(=O)(=O)N1c1ccc2cc(-c3nc4cc(C(=O)N5[C@H]6CC[C@@H]5[C@H](N)C6)ccc4n3C3CC3)n(CC3CC3)c2n1 [Example 98, ((1R,2R,4S)-2-amino-7-azabicyclo[2.2.1]heptan-7-yl) (1-cyclopropyl-2-(1-(cyclopropylmethyl)-6-((S)-3-methyl-1,1-dioxido-1,2-thiazinan-2-yl)-1H-pyrrolo[2,3-b]pyridin-2-yl)-1H-benzo[d]imidazol-5-yl)methanone] | 18.9 |
| COc1cc(C(=O)N2[C@H]3CC[C@@H]2[C@H](N)C3)cc2nc(-c3cc4ccc(N5[C@@H](C)CCCS5(=O)=O)nc4n3CC3CC3)n(C)c12 [Example 103, ((1R,2R,4S)-2-amino-7-azabicyclo[2.2.1]heptan-7-yl) (2-(1-(cyclopropylmethyl)-6-((S)-3-methyl-1,1-dioxido-1,2-thiazinan-2-yl)-1H-pyrrolo[2,3-b]pyridin-2-yl)-7-methoxy-1-methyl-1H-benzo[d]imidazol-5-yl) methanone] | 22.3 |

Results, then the compound that gave them:

| IC50 [nM] | Structure (SMILES) |
| --- | --- |
| 655 | COc1cc(C(=O)N2CC3CCC3(N)C2)cc2nc(-c3cc4ccc(N(C(F)F)S(C)(=O)=O)nc4n3CC3CC3)n(C)c12 (stereo not drawn) [Example 78, N-(2-(5-(1-amino-3-azabicyclo[3.2.0]heptane-3-carbonyl)-7-methoxy-1-methyl-1H-benzo[d]imidazol-2-yl)-1-(cyclopropylmethyl)-1H-pyrrolo[2,3-b]pyridin-6-yl)-N-(difluoromethyl) methanesulfonamide] |
| 812 | CN(c1ccc2cc(-c3nc4cc(C(=O)N5CCC[C@@H](N)C5)cc5c4n3CCO5)n(CC3CC3)c2n1)S(C)(=O)=O [Example 89, (R)-N-(2-(7-(3-aminopiperidine-1-carbonyl)-3,4-dihydro-5-oxa-1,2a-diazaacenaphthylen-2-yl)-1-(cyclopropylmethyl)-1H-pyrrolo[2,3-b]pyridin-6-yl)-N-methylmethanesulfonamide] |
| 1570 | COc1cc(C(=O)N2CCC[C@@H](N)[C@H]2C)cc2nc(-c3cc4ccc(N=S(C)(C)=O)nc4n3CC3CC3)n(C)c12 [Example 95, ((2-(5-((2R,3R)-3-amino-2-methylpiperidine-1-carbonyl)-7-methoxy-1-methyl-1H-benzo[d]imidazol-2-yl)-1-(cyclopropylmethyl)-1H-pyrrolo [2,3-b]pyridin-6-yl)imino)dimethyl-16-sulfanone] |
| 1050 | COc1cc(C(=O)N2CCC[C@@H](N)C2)cc2nc(-c3cc4ccc(N5CCCS5(=O)=O)nc4n3CC3CC3)n(C)c12 [Example 96, (R)-(3-aminopiperidin-1-yl)(2-(1-(cyclopropylmethyl)-6-(1,1-dioxidoisothiazolidin-2-yl)-1H-pyrrolo[2,3-b]pyridin-2-yl)-7-methoxy-1-methyl-1H-benzo[d]imidazol-5-yl) methanone] |
| 159 | COc1cc(C(=O)N2CCC[C@@H](N)C2)cc2nc(-c3cc4ccc(N5CCCCS5(=O)=O)nc4n3CC3CC3)n(C)c12 [Example 97, (R)-(3-aminopiperidin-1-yl) (2-(1-(cyclopropylmethyl)-6-(1,1-dioxido-1,2-thiazinan-2-yl)-1H-pyrrolo[2,3-b]pyridin-2-yl)-7-methoxy-1-methyl-1H-benzo[d]imidazol-5-yl)methanone] |
| 28.4 | C[C@H]1CCCS(=O)(=O)N1c1ccc2cc(-c3nc4cc(C(=O)N5CCC[C@@H](N)C5)ccc4n3C3CC3)n(CC3CC3)c2n1 [Example 99, ((R)-3-aminopiperidin-1-yl)(1-cyclopropyl-2-(1-(cyclopropylmethyl)-6-((S)-3-methyl-1,1-dioxido-1,2-thiazinan-2-yl)-1H-pyrrolo[2,3-b]pyridin-2-yl)-1H-benzo[d]imidazol-5-yl) methanone] |
| 55.5 | C[C@H]1CCCS(=O)(=O)N1c1ccc2cc(-c3nc4cc(C(=O)N5C[C@H]6CC[C@@H]5[C@@H]6N)ccc4n3C3CC3)n(CC3CC3)c2n1 [Example 100, ((1R,4R,7R)-7-amino-2-azabicyclo[2.2.1]heptan-2-yl) (1-cyclopropyl-2-(1-(cyclopropylmethyl)-6-((S)-3-methyl-1,1-dioxido-1,2-thiazinan-2-yl)-1H-pyrrolo[2,3-b]pyridin-2-yl)-1H-benzo[d]imidazol-5-yl)methanone] |
| 43.4 | COc1cc(C(=O)N2CCC[C@@H](N)C2)cc2nc(-c3cc4ccc(N5[C@@H](C)CCCS5(=O)=O)nc4n3CC3CC3)n(C3CC3)c12 [Example 101, ((R)-3-aminopiperidin-1-yl)(1-cyclopropyl-2-(1-(cyclopropylmethyl)-6-((S)-3-methyl-1,1-dioxido-1,2-thiazinan-2-yl)-1H-pyrrolo[2,3-b]pyridin-2-yl)-7-methoxy-1H-benzo[d]imidazol-5-yl)methanone] |
| 42 | COc1cc(C(=O)N2[C@H]3CC[C@@H]2[C@H](N)C3)cc2nc(-c3cc4ccc(N5[C@@H](C)CCCS5(=O)=O)nc4n3CC3CC3)n(C3CC3)c12 [Example 102, ((1R,2R,4S)-2-amino-7-azabicyclo[2.2.1]heptan-7-yl)(1-cyclopropyl-2-(1-(cyclopropylmethyl)-6-((S)-3-methyl-1,1-dioxido-1,2-thiazinan-2-yl)-1H-pyrrolo[2,3-b]pyridin-2-yl)-7-methoxy-1H-benzo[d]imidazol-5-yl)methanone] |
